# Experimental data published in US20170304002A1, “ELECTROMANIPULATION OF PROTEINS USING NANOSECOND PULSED ELECTRIC FIELDS” (Old Dominion University, priority 2014, published 2017).
# System: Jurkat A3 cells
# Experiment: nsPEF-induced dissipation of mitochondria membrane potential (ΔΨm), TMRE flow cytometry
# Assay type: cell-based
# Procedure: Wildtype Jurkat T-lymphocytes (clone A3) were obtained from ATCC (Manassas, Va.) and cultured in RPMI 1640 medium (ATCC) including about 10% fetal bovine serum (FBS) (Atlanta Biologist). N1-S1 HCC cells were obtained from ATCC and cultured in Iscove's Modified Delbecco's Medium including FBS. Both cell lines were maintained in media including about 1% L-glutamine and about 1% penicillin and streptomycin. Cells were treated in cuvettes in cell culture media with nsPEFs using pulse generators, such as, for example as described in Transient features in nanosecond pulsed electric fields differentially modulate mitochondria and viability, PLoS One 7 (2012).
# Loss in ΔΨm was determined by staining cells with either 2 μM JC-1 (5′,6, 6′-tetrachloro-1,1′,3,3′-tetraethylbenzimidazole-carbocyanideiodine, Molecular Probes, Eugene, Oreg., USA), where JC-1 changes from red to green when ΔΨm decreases (data not shown) or with 200 […] TMRE (tetramethylrhodamine ethyl ester, Immunochemistry Technologies LLC, Bloomington, Minn.), where TMRE red emissions decrease when ΔΨm decreases. To determine effects of Ca^2+ on ΔΨm, cells were pre-incubated with or without 20 μM BAPTA-AM and/or 5 mM EGTA for about 30 min before nsPEF treatment. The ΔΨm was determined about 10 min after treatment with nsPEFs. The TMRE red fluorescence was determined (10,000 cells) on a Becton Dickinson FacsAria flow cytometer. Although data shown are with TMRE, near identical results were obtained with JC-1. […]
# Jurkat cells (A3 clone) were pre-incubated with TMRE (200 nM) for 20 min. […] Cell were then analyzed by flow cytometry 10 min after treatment for red (TMRE, ΔΨm) fluorescent and expressed as percent cells showing fluorescence (Y-axis) at each electric field strength (X-axis). In the presence of 3 mM Ca^2+ (absence of EGTA) there was an electric field-dependent decrease in cells expressing a high ΔΨm as indicated by decreases in TMRE fluorescence. […] Statistical significance was determined by the paired Student's t-test (p<0.05; n=3). […]
Structure (SMILES),"chelation of Ca2+ influx from the extracellular environment by BAPTA-AM alone (BAPTA-AM 20 μM alone, data not shown)","effect on nsPEF-induced loss of ΔΨm (percent cells showing TMRE fluorescence) (30 min pre-incubation, EGTA 5 mM, BAPTA-AM 20 μM, ten 60 ns pulses, all electric fields up to 60 kV/cm, 10 min after treatment)","block of nsPEF-induced loss of ΔΨm at high electric field (electric field ≧40 kV/cm, EGTA 5 mM, BAPTA-AM 20 μM, ten 60 ns pulses)"
CC(=O)OCOC(=O)CN(CC(=O)OCOC(C)=O)c1ccccc1OCCOc1ccccc1N(CC(=O)OCOC(C)=O)CC(=O)OCOC(C)=O [BAPTA-AM],not sufficient to chelate influxes of Ca^2+ from the extracellular environment,–,–
O=C(O)CN(CCOCCOCCN(CC(=O)O)CC(=O)O)CC(=O)O [EGTA],–,prevented losses in ΔΨm,neither EGTA nor EGTA/BAPTA completely blocked loss of ΔΨm
